The source of these data is patent US20040086904A1, “Screening assay for cotranslational translocation interfering compounds” (priority 2001, published 2004).

pIC50: −log10 of the molar value. Bounds are passed on as bounds.

One test concerns the target T1, E-Selectin (Homo sapiens, UniProt P16581).
T1 construct: Full length cDNAs of the adhesion molecules VCAM-1, ICAM-1 and E-Selectin are transcribed and translated; host or cells: cell-free: coupled TNT reticulocyte lysate (Promega) with dog pancreatic microsomes
T1 sequence (P16581 22-610): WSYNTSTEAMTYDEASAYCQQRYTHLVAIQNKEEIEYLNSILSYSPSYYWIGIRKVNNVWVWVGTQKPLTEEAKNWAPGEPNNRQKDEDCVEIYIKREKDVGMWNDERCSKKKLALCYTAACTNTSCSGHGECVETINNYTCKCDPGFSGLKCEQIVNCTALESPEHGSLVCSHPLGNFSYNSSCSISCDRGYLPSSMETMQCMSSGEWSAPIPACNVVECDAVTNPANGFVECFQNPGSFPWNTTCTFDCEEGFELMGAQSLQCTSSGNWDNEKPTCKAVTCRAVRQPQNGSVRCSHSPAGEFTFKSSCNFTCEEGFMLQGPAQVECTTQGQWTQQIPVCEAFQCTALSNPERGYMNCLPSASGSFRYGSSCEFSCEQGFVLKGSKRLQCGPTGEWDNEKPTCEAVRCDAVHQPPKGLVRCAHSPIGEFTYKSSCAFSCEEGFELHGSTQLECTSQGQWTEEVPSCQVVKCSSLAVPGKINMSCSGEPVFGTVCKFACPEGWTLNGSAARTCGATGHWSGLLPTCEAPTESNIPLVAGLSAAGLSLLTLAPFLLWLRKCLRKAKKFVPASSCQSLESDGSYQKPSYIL
As to the kind of experiment: Cell-free translation/translocation assay, E-Selectin. Type of test: biochemical. Particulars: reticulocyte lysate with dog pancreatic microsomes, at the concentrations tested. The text has this:
Proteins are radioactively labelled and visualised by autoradlography.

Another test deals with T2, VCAM-1 (Homo sapiens, UniProt P19320).
T2 sequence (P19320 25-739): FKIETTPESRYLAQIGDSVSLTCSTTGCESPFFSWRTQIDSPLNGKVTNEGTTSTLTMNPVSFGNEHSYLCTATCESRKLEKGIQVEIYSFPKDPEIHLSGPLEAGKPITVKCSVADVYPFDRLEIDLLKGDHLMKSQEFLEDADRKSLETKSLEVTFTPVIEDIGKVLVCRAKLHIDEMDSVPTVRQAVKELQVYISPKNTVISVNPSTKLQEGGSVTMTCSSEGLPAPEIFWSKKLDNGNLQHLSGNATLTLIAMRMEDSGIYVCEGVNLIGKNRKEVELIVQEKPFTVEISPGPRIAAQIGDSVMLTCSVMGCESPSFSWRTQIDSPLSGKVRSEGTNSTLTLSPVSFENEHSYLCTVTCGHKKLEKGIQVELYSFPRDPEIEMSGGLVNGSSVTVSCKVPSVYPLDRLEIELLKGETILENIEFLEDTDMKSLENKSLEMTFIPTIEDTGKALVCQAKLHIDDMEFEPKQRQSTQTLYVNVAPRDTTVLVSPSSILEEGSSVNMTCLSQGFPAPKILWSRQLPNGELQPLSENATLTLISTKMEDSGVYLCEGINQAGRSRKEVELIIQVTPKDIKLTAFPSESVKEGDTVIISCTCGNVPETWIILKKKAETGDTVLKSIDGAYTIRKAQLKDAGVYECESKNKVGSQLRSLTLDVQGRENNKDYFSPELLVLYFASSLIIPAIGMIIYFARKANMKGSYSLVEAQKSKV
As to the kind of experiment: Transient expression of VCAM-1 in HEK293 cells, Western blot / immunoblot. Also noted: expressed in transfected cells; host or cells: HEK293. Type of test: cell-based. The method, then: The E-Selectin and ICAM-1 expression vectors pCDM8-E-selectin and pCDM8-ICAM-1 allowing transient expression in mammalian cells and cell-free translation are obtained from R&D Systems. VCAM-1 cDNA is obtained by reverse transcription of total RNA from TNF-α stimulated primary human umbilical vein endothelial cells (HUVEC) as follows. After extraction of total RNA with Trizol (GibcoBRL) according to the suppliers recommendations, reverse transcription (RT) PCR on approximately 3 μg total HUVEC RNA is performed using the Advantage High Fidelity PCR kit (CLONTECH) under standard conditions with N- and C-terminal VCAM-1-specific sense and antisense oligonucleotide primers, respectively. Primers are tailed, introducing a Kpnl restriction site 5′ of the Kozak sequence and a Xhol site 3′ of the stop codon. Placental SEAP is amplified accordingly by PCR using plasmid pBC 12/PLAP489 (Berger et al., 1988) as a template and similar tailed SEAP-specific sense and antisense oligonuclotide primers. The SEAP and VCAM-1 cDNAs are isolated and cloned into the pCR2.1 vector (TA cloning kit, Invitrogen). […] Approximately equal molar quantities of each PCR product A and B are phosphorylated and ligated. […]
Protein expression in cells is analyzed by Western blot and subsequent immunoblot analysis. […]
In general terms: Immunoblotting shows a protein as a band on a membrane.

On to `CCCCC(C)CC1NC(=O)C(Cc2cn(OC)c3ccccc23)N(C)C(=O)C(CC(C)C)NC(=O)C(CC(C)C)N(C)C(=O)C(CC(C)CCCC)NC(=O)C(CCC(=O)OCCC)OC(=O)C(C)N(C)C1=O` (stereo not drawn) [CP], for which the “translocation of E-Selectin” value on E-Selectin is listed as “resistant”. In addition, the “VCAM-1 protein in transfected cells co-treated with lactacystin” value at VCAM-1 (cells transiently transfected with VCAM-1 cDNA, co-treatment with lactacystin 5 μM, band identified as full length, non-glycosylated VCAM-1) is “accumulation of a polypeptide moiety of lower molecular weight”. Further, the pIC50 at VCAM-1 (transiently transfected HEK293 cells, 48 hours post-transfection, Western blot quantified against β-actin, read-out: concentration inhibiting 50% of VCAM-1 glycoprotein synthesis) is over 8.30.
